Measurements reported in patent US4567169A, “Nitrosourea substituted phosphonates and pharmaceutical use” (priority 1982, dated 1986).

Columns and labels:
[1] = system: pyruvic glutamic transaminase; assay: hepatic toxicity (Wroblewski's method), pyruvic glutamic transaminase activity in serum; assay type: in vivo, Long Evans rats
Method: The hepatic toxicity is assessed according to Wroblewski's method by measuring the pyruvic glutamic transaminase activity contained in the serum from Long Evans rats treated with an intraperitoneal injection of 25 mg/kg of BCNU or with equipotential doses of the compounds according to the invention.

[2] = system: pulmonary metastases; assay: antimetastatic capacity: reduction in number and weight of pulmonary metastases developed after intramuscular inoculation of carcinoma cells; assay type: in vivo; conditions: 10 mg/kg as a curative treatment for 9 days
Method: The antimetastatic capacity of the compounds of the present invention is measured by the reduction, compared with untreated animals, in the number and weight of pulmonary metastases developed after intramuscular inoculation of carcinoma cells.

[3] = system: tumour-bearing mice (tumorous cells inoculated by intraperitoneal or intramuscular route); assay: capacity to increase the life-span of mice bearing tumorous cells (NCI protocols, Geran et al.); assay type: in vivo; conditions: 5 mg/kg
Method: The compounds according to the invention are tested by their capacity to increase the life-span of mice bearing tumorous cells inoculated by intraperitoneal or intramuscular route in accordance with the protocols edicted by the National Cancer Institute (U.S.A.) and published by R. I. GERAN et al. in Cancer Chemotherapy Reports 1972, part III, Vol. 3 (2), 1-87.
Given per os, these compounds increase the life-span of tumor-bearing animals. The rate of effectiveness of the active doses per os over the active dose by intraperitoneal route is greater for the compounds according to the invention than for the reference products (F. SPREAFICO et al. in Nitrosoureas: current status and new developments, A. W. PRESTAYKO et al. editors, 1981, Academic Press (New York); Experimental Evaluation of Antitumor Drugs in the USA and USSR and clinical correlations; National Cancer Institute Monograph No. 55; National Institutes of Health USA 1980).

| Compound | hepatic toxicity ([1]; intraperitoneal injection of 25 mg/kg of BCNU or equipotential doses of the compounds) | formation of metastases [2] | long-term survivors [3] | serum pyruvic glutamic transaminase level ([1]; 25 mg/kg, Long Evans rats) |
| --- | --- | --- | --- | --- |
| O=NN(CCCl)C(=O)NCCCl [BCNU, N-N'-bis(2-chloroethyl)-N-nitrosourea, reference compound] | notable hepatic toxicity |  |  |  |
| CCOP(=O)(OCC)C(C)NC(=O)N(CCCl)N=O (stereo not shown) [Example 4, 1-[N-(2-chloroethyl)-N-nitrosoureido]ethylphosphonic acid diethyl ester] |  | prevents the formation of metastases | inducing long-term survivors | does not lead to an increase in the enzyme level outside the range usually found in untreated rats |
